Patent US11974969B2, “Artificially synthesized sphingosine derivative lipoid monomer and use of same for delivering nucleic acid” (INSTITUTE OF BASIC MEDICAL SCIENCES CHINESE ACADEMY OF …, priority 2018, dated 2024)

Test system: HEK293T cells
Assay: Flow cytometry (CFlow): delivery of FAM-labeled single-stranded PGY-sRNA-6 into HEK293T cells by different concentrations of single sphingosine derivative (Example 1)
Assay type: cell-based, human
Conditions: for delivery of single-stranded PGY-sRNA-6 into 293T cells (fluorescence shift compared to free uptake group): different concentrations: 3.75, 12.5, 37.5 μg single lipid, 0.1 nmol FAM-labeled sRNA, final 100 nM, 9 hours, flow cytometry; for Lipid delivery group (different concentrations of lipids) 3.75 μg/mL: single sphingosine derivative 3.75 μg/mL; for Lipid delivery group (different concentrations of lipids) 3.75 μg/mL / Lipid delivery group (different concentrations of lipids) 12.5 μg/mL / Lipid delivery group (different concentrations of lipids) 37.5 μg/mL: FAM-labeled PGY-ssRNA-6 100 nM, 293T cells, fluorescence shift by flow cytometry; for Lipid delivery group (different concentrations of lipids) 12.5 μg/mL: single sphingosine derivative 12.5 μg/mL; for Lipid delivery group (different concentrations of lipids) 37.5 μg/mL: single sphingosine derivative 37.5 μg/mL
Description: 2.1 5 μl of small RNA (Ribobio, 20 μM, as shown in Table 2) and 95 μL of DEPC (Sigma) treated water were added into a 1.5 ml EP tube and mixed well. Then a certain amount of single lipid or lipid composition in chloroform solution (as shown in Table 1) was added and fully mixed by sucking and blowing;
2.2 The system was fully mixed and was heated in a water bath at 90° C. for 15 minutes;
2.3 The system was taken out and cooled down to room temperature.
4.3 The human embryonic kidney cell line HEK293T and human monocyte THP-1 cells used in the experiment were cultured to logarithmic growth phase, and then plated into 12-well plates with a cell density of 6×10^5/1 mL medium/well. The 12-well plate (1 mL medium/well) was incubated overnight (12 h) at 37° C., followed by subsequent experiments.
4.4 The experiment groups were as follows: • 1) Naïve group: untreated cells. This group served as a blank control group. • 2) Free uptake group: […] of 5′-FAM labeled small RNA solution (storage concentration is 20 μM) was directly added. This group served as a negative control group; • 3) Lipid nucleic acid mixture treatment group: The mixture of the lipid prepared in step 2 and the 5′-FAM-labeled small RNA was added into the cells and mixed well. The final concentration of small RNA is 100 nM.
4.5 After co-incubation with cells for 6 h/9 h, the cells were washed three times with PBS. The cells were re-suspended with PBS (self-prepared). The flow cytometer Accuri® C6 instrument (purchased from BD, US) was used to detect the fluorescence intensity of the cells in the sample wells. Implementation method: the software CFlow Plus used in the flow cytometer Accuri® C6 instrument detection was opened, the instrument was washed with cleaning solution for 3 minutes, and then washed with double-distilled water for 5 minutes. The injection of blank group samples was started while setting the number of cells unlimited. The injection of Naïve group samples was stopped when the number of cells detected was 10000 events. The live cell group in the fluorescence spectrum (abscissa: FSC-A, ordinate: SSC-A) was circled as gate P1. With the number of cells set as limited, the detection was stopped when the number of cells in gate P1 reached 10000 events. The fluorescence shift value was obtained in the fluorescence spectrum (abscissa: fluorescence channel FLA-1, ordinate: SSC-A).
1) Conditions of the boiling method: to 100 μL FAM-labeled single-stranded PGY-sRNA-6 solution was added corresponding amount of lipid solution, and heated at 90° C. for 15 min;
2) Experimental conditions: the final concentration of small RNA was 100 nM. 9 hours after being added to the cells, the amount of single-stranded PGY-sRNA-6 that entered into the cells was compared by detecting the fluorescence shift using flow cytometry technology. For the detailed protocols, see “Flow cytometry technology (CFlow) determined the uptake amount of nucleic acid that is delivered into cells by lipid”. All experiments were performed in triplicates.

Row | Structure (SMILES) | delivery of single-stranded PGY-sRNA-6 into 293T cells (fluorescence shift compared to free uptake group) | Lipid delivery group (different concentrations of lipids) 3.75 μg/mL [%] | Lipid delivery group (different concentrations of lipids) 12.5 μg/mL [%] | Lipid delivery group (different concentrations of lipids) 37.5 μg/mL [%]
1 | CCCCCCCCCCCC/C=C/[C@@H](O)[C@@H](N)CO [So-53, D-erythro-Sphingosine C-17] | deliver | 0.20 | 0.30 | 6.70
2 | CCCCCCCCCCCCCC=CC(O)C(COP(=O)(O)OCCN)NC(C)=O (stereo not shown) [So-60, N-Acetyl-Sphingosylphosphorylethanolamine] | deliver | 7.10 | 7.10 | 6.20
3 | CCCCCCCCCCCCC/C=C/[C@@H](O)[C@H](CO[C@@H]1O[C@H](CO)[C@H](O)[C@H](O)[C@H]1O)NC(=O)CCCCCCCCCCCCCC [So-61, N-[(1S,2R,3E)-1-[(β-D-galactopyranosyloxy)methy1]-2-hydroxy-3-heptadecen-1-yl]-pentadecanamide] | deliver | 7.40 | 8.10 | 7.00
4 | CCCCCCCCCCCCC/C=C/[C@@H](O)[C@H](CO)NC(=O)CCCCCCCCCCC [So-62, N-[(1S,2R,3E)-2-hydroxy-1-(hydroxymethyl)-3-heptadecen-1-yl]-dodecanamide] | deliver | 6.60 | 6.50 | 7.10
5 | CCCCCCCCCCCCCC[C@@H](O)[C@@H](O)[C@@H](N)CO [So-63, 2S-amino-1,3S,4R-octadecanetriol] | deliver | 5.60 | 7.70 | 6.50
6 | CCCCCCCCCCCCC/C=C/[C@@H](O)[C@H](CO)NC(=O)CCCCCCCCCCCCCC [So-64, N-[(1S,2R,3E)-2-hydroxy-1-(hydroxymethyl)-3-heptadecen-1-yl]-pentadecanamide] | deliver | 7.40 | 6.20 | 8.70
7 | CCCCCCCCCCCCC/C=C/[C@@H](O)[C@H](CO)NC(=O)CCCCCCCCCCCCCCCCCC [So-65, N-[(1S,2R,3E)-2-hydroxy-1-(hydroxymethyl)-3-heptadecen-1-yl]-nonadecanamide] | deliver | 7.60 | 7.50 | 6.80
8 | CCCCCCCCCCCCC/C=C/[C@@H](O)[C@@H](N)CO[C@@H]1OC(CO)[C@@H](O)C(O)C1O (stereo partly drawn) [So-66, D-glucosyl-β1-1′-D-erythro-sphingosine] | deliver | 7.10 | 18.10 | 29.50
9 | CCCCCCCCCCCCCC[C@@H](O)[C@@H](O)[C@H](CO)NC(=O)CCCCC [So-67, N-[(1S,2S,3R)-2,3-dihydroxy-1-(hydroxymethyl)heptadecyl]-hexanamide] | deliver | 6.30 | 5.30 | 2.80
10 | CCCCCCCCCCCCCCCC(=O)N[C@@H](CO)[C@H](O)[C@H](O)CCCCCCCCCCCCCC [So-68, N-[(1S,2S,3R)-2,3-dihydroxy-1-(hydroxymethyl)heptadecyl]-hexadecanamide] | deliver | 4.80 | 3.80 | 3.90
11 | CCCCCCCCCCCCCCCCCC(=O)N[C@@H](CO)[C@H](O)[C@H](O)CCCCCCCCCCCCCC [So-69, N-[(1S,2S,3R)-2,3-dihydroxy-1-(hydroxymethyl)heptadecyl]-octadecanamide] | deliver | 4.60 | 3.80 | 3.30
12 | CCCCCCCCCCCCC/C=C/[C@H](O)[C@H](N)CO [So-70, (2R,3S,4E)-2-amino-4-octadecene-1,3-diol] | deliver | 4.70 | 10.10 | 11.40
13 | CCCCCCCCCC(=O)C(N)CO.Cl (stereo not shown) [So-72, 2-amino-1-hydroxy-3-dodecanone, monohydrochloride] | deliver | 2.40 | 3.40 | 14.10
14 | CCCCCCCCCC/C=C/[C@@H](O)[C@@H](N)CO [So-73, 2S-amino-4E-pentadecene-1,3R-diol] | deliver | 3.20 | 4.60 | 9.50
15 | [2H]C([2H])([2H])C([2H])([2H])C([2H])([2H])C([2H])([2H])CCCCCCCCC/C=C/[C@@H](O)[C@@H](N)CO [So-74, (2S,3R,E)-aminooctadec-4-ene-15,15,16,16,17,17,18,18,18-d9-1,3-diol] | deliver | 4.00 | 3.10 | 6.60
16 | CC(C)CCCCCCCCCCC[C@@H](O)[C@@H](N)CO [So-75, 1,3-Hexadecanediol, 2-amino-15-methyl-, D-erythro-] | deliver | 3.00 | 4.20 | 11.40
